Series [1] has as its target human mGluR5 (Homo sapiens, UniProt P41594). In words: Cell-based functional Ca2+ mobilization assay, potentiation of glutamate EC20 response (H10H cell-line). To be noted: H10H cell-line expressing recombinant human mGluR5; for Emax / Emax (%): in presence of glutamate EC20, normalized to maximal glutamate response; for EC50 / pEC50: potentiation in presence of glutamate EC20. As for the experimental part: Human embryonic kidney (HEK) cells transfected with rat mGluR5 were plated in clear bottom assay plates for assay in a Functional Drug Screening System (FDSS). In the alternative assay, HEK cells transfected with human mGluR5 were plated for assay in the FDSS. In some cases the HEK cells transfected with human mGluR5 are the H10H cell line. Alternatively, the HEK cells transfected with human mGluR5 are the H12H cell line. […] The cells were loaded with a Ca^2+-sensitive fluorescent dye (e.g., Fluo-4), and the plates were washed and placed in the FDSS instrument. After establishment of a fluorescence baseline for about three seconds, the compounds of the present invention were added to the cells, and the response in cells was measured. Five minutes later, an mGluR5 agonist (e.g., glutamate, 3,5-dihydroxyphenylglycine, or quisqualate) was added to the cells, and the response of the cells was measured. Potentiation of the agonist response of mGluR5 by the compounds in the present invention was observed as an increase in response to non-maximal concentrations of agonist (here, glutamate) in the presence of compound compared to the response to agonist in the absence of compound.
The above described assay can be operated in two modes. In the first mode, a range of concentrations of the present compounds were added to cells, followed by a single fixed concentration of agonist. If a compound acted as a potentiator, an EC50 value for potentiation and a maximum extent of potentiation by the compound at this concentration of agonist was determined by non-linear curve fitting. In the second mode, several fixed concentrations of the present compounds were added to various wells on a plate, followed by a range of concentrations of agonist for each concentration of present compound; the EC50 values for the agonist at each concentration of compound were determined by non-linear curve fitting. A decrease in the EC50 value of the agonist with increasing concentrations of the present compounds (a leftward shift of the agonist concentration-response curve) is an indication of the degree of mGluR5 potentiation at a given concentration of the present compound. An increase in the EC50 value of the agonist with increasing concentrations of the present compounds (a rightward shift of the agonist concentration-response curve) is an indication of the degree of mGluR5 antagonism at a given concentration of the present compound. The second mode also indicates whether the present compounds also affect the maximum response to mGluR5 to agonists.
Human mGluR5a cDNA in pCMV6-XL6 mammalian expression plasmid was purchased from OriGene Technologies, Inc. (catalogue number SC326357) and subcloned into pcDNA3.1(−). Human embryonic kidney (HEK) 293A cells were then transfected with human mGluR5a pcDNA3.1(−) using LipofectAmine 2000 (Invitrogen) and monoclones were selected and tested for functional response using a Ca^2+ mobilization assay. Monoclones were named for the species (“H” for human) plus the location on the plate (e.g. “10H”).
HEK cells transfected with the human mGluR5a receptor were plated at 15,000 cells/well in clear-bottomed poly-D-lysine-coated assay plates (BD Falcon) in glutamate-glutamine-free growth medium and incubated overnight at 37° C. and 5% CO2. The cell-line used to obtain the data reported herein was the H10H cell-line expressing the human mGluR5 receptor. Although the H10H cell-line was used to obtain the data shown herein, the H12H cell-line expressing the human mGluR5 receptor can also be used in these assays. The following day, the growth medium was removed and the cells were washed with assay buffer containing 1× Hank's balanced salt solution (Invitrogen, Carlsbad, Calif.), 20 mM HEPES, 2.5 mM probenecid, pH 7.4 and left with 20 μL of this reagent. Following this step, the cells were loaded with calcium indicator dye, fluo-4 AM, to a final concentration of 2 μM and incubated for 40-45 min at 37° C. […]
A general note: Calcium flux is commonly read through the fluorescence of an indicator in the cells.

human mGluR5, sequence (P41594 21-1180 isoform P41594-2 limits assumed): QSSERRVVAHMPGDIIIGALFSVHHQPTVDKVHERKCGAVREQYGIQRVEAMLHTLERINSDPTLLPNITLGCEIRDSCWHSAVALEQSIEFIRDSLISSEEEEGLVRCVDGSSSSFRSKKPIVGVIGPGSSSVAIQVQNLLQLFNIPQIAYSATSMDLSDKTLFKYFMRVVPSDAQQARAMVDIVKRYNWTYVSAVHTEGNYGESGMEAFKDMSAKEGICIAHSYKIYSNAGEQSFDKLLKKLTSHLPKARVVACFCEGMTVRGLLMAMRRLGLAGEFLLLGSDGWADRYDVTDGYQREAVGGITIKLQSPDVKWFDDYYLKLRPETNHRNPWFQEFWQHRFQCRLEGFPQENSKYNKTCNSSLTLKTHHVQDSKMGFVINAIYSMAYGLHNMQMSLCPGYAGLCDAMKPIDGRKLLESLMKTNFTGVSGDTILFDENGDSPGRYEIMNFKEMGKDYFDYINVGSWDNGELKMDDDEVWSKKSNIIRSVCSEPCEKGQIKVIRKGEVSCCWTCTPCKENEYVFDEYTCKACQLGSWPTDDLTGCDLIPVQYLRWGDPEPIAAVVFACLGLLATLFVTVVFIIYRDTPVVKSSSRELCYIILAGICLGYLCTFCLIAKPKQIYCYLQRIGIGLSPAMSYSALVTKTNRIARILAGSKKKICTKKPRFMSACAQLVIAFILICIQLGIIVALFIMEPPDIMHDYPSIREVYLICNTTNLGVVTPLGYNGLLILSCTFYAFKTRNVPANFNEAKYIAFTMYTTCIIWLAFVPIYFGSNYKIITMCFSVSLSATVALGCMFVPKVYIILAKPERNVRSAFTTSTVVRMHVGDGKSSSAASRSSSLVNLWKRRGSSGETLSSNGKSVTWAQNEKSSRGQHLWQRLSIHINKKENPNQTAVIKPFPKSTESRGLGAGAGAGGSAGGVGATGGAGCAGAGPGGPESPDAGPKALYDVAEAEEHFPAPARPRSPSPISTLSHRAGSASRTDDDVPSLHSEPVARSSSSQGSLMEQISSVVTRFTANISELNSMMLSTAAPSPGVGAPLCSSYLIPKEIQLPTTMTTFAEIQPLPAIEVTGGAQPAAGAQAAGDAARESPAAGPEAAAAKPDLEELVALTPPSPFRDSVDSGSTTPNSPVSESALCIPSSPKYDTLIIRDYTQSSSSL

For orientation: Emax means the greatest response seen or fitted, relative to the assay's reference. As usually defined, the EC50 is the concentration at which the effect is half-maximal. What is called melting point is the temperature, or range, at which the solid turns liquid. Consider `O=C(c1ccccc1F)N1CCc2nc(COc3ccccc3)sc2C1` [Example B5, 5-[(2-fluorophenyl)carbonyl]-2-(phenoxymethyl)-4,5,6,7-tetrahydro[1,3]thiazolo[5,4-c]pyridine], for which the melting point was in the range of 124.1 to 125.3 °C. For the same compound, in series [1], the Emax stood at 64% and the EC50 is 871 nM.

On to `O=C(c1cccc(F)c1)N1CCc2nc(COc3ccccc3)oc2C1` [Example B7, 5-[(3-fluorophenyl)carbonyl]-2-(phenoxymethyl)-4,5,6,7-tetrahydro[1,3]oxazolo[5,4-c]pyridine], for which the melting point was 66 °C. For the same compound, in series [1], the Emax turned out to be 80% and the EC50 was 112 nM.

In turn, `O=C(c1ccccc1)N1CCc2nc(COc3cccc(F)c3)oc2C1` [Example B26] showed a melting point of 204.7 °C. In addition, in series [1], the Emax is 80% and the concentration for a half-maximal effect (EC50) was 251 nM.

`O=C(c1cccc(F)c1)N1CCc2nc(COc3cccc(F)c3)oc2C1` [Example B27] came in with a melting point of 74.7 °C. Also, in series [1], the Emax came to 76% and the EC50 was 186 nM.

For the compound `O=C(c1cc(F)cc(F)c1)N1CCc2nc(COc3cccc(F)c3)oc2C1` [Example B30], the melting point amounted to 70 °C. Also, in series [1], the Emax came out at 44% and the 50% effective concentration (EC50) is 148 nM.

With `O=C(N1CCc2nc(COc3ccccc3)oc2C1)C(F)(F)F` [Example B34, 2-(phenoxymethyl)-5-(trifluoroacetyl)-4,5,6,7-tetrahydro[1,3]oxazolo[5,4-c]pyridine], the melting point worked out at 71.8 °C. In series [1], the maximum response (Emax) worked out at 10% and the half-maximal effective concentration (EC50) is 891 nM.

On to `O=C(c1ccc(F)cc1)N1CCc2nc(COc3ccc(O)cc3)oc2C1` [Example B35, 4-({5-[(4-fluorophenyl)carbonyl]-4,5,6,7-tetrahydro[1,3]oxazolo[5,4-c]pyridin-2-yl}methoxy)phenol], for which the melting point was found to be 137.4 °C. Moreover, in series [1], the Emax was 57% and the 50% effective concentration (EC50) is above 10000 nM.

`O=C(c1ccc(F)cn1)N1CCc2nc(COc3ccccc3)oc2C1` [Example B40] returned a melting point of 113.1 °C. Moreover, in series [1], the Emax is 67% and the concentration giving a half-maximal response (EC50) was 2950 nM.

Take `N#Cc1cccc(C(=O)N2CCc3nc(COc4ccccc4)oc3C2)c1` [Example B43]: the melting point was 130 °C. In series [1], the maximal response (Emax) came to 64.5% and the EC50 was 295 nM.

`N#Cc1ccc(C(=O)N2CCc3nc(COc4ccccc4)oc3C2)cc1` [Example B49] registered a melting point of 132.2 °C. In series [1], the Emax is 58% and the EC50 was 3090 nM.

Regarding `O=C(c1ccc(F)cc1)N1CCc2nc(COc3ccc(Br)cc3)oc2C1` [Example B129], in series [1], the maximal effect (Emax) came out at 27% and the EC50 was above 30200 nM.

Turning to `O=C(c1ccc(F)cc1)N1CCc2nc(COc3ccccc3C(F)(F)F)oc2C1` [Example B130], in series [1], the maximal response (Emax) turned out to be 22% and the concentration giving a half-maximal response (EC50) was above 30200 nM.

Consider `O=C(c1ccc(F)cc1)N1CCc2nc(CCc3ccccc3)oc2C1` [Example B131, 5-[(4-fluorophenyl)carbonyl]-2-(2-phenylethyl)-4,5,6,7-tetrahydro[1,3]oxazolo[5,4-c]pyridine], for which, in series [1], the maximal response (Emax) is 24% and the half-maximal effective concentration (EC50) was above 30200 nM.

Regarding `Cc1ccc(C(=O)N2CCc3nc(COc4ccccc4)oc3C2)cn1` [Example B132], in series [1], the Emax is 49% and the EC50 was above 10000 nM.

For the compound `Cc1cccc(OCc2nc3c(o2)CN(C(=O)c2ccc(F)cc2)CC3)n1` [Example B133], in series [1], the Emax is 32% and the EC50 is above 10000 nM.

With `O=C(Cc1ccc(F)cc1)N1CCc2nc(COc3ccccc3)oc2C1` [Example B134], in series [1], the maximal response (Emax) was determined as 61% and the EC50 is 1200 nM.

As for `Cc1ncc(C(=O)N2CCc3nc(COc4ccccc4)oc3C2)cn1` [Example B135], in series [1], the Emax amounted to 36% and the EC50 was above 10000 nM.

As a reminder, the pEC50 is −log10 of the EC50, conventionally taken in molar units. With `N#Cc1cc(F)cc(OCc2nc3c(o2)CN(C(=O)c2ccc(F)cc2)CC3)c1` [Example B136], in series [1], the “Emax (%)” value came to 45% and the negative logarithm of the EC50 (pEC50) is listed as below 5.

`N#Cc1cc(Br)cc(OCc2nc3c(o2)CN(C(=O)c2ccc(F)cc2)CC3)c1` [Example B137]: in series [1], the “Emax (%)” value is 24% and the pEC50 is given as below 4.52.

For the compound `COCC(=O)N1CCc2nc(COc3ccccc3)oc2C1` [Example B138], in series [1], the “Emax (%)” value was 27% and the pEC50 was below 4.52.

Consider `O=C(c1ccc(=O)[nH]c1)N1CCc2nc(COc3ccccc3)oc2C1` [Example B139], for which, in series [1], the Emax amounted to 10% and the 50% effective concentration (EC50) is above 30200 nM.

Regarding `CC(C)(C)OC(=O)NC(C(=O)N1CCc2nc(COc3ccccc3)oc2C1)C(C)(C)C` (stereo not drawn) [Example B140], in series [1], the “Emax (%)” value worked out at 58% and the pEC50 was found to be 5.77.

For the compound `CC(C)(C)C(=O)N1CCc2nc(COc3ccccc3)oc2C1` [Example B142], the “mGluR5 activity type (footnote)” value in series [1] is “**The indicated compound is a mGluR5 antagonist”.

With `O=C(c1n[nH]c2ccncc12)N1CCc2nc(COc3ccccc3)oc2C1` [Example B143], in series [1], the maximum response (Emax) turned out to be 68% and the pEC50 is on record as 5.85.

For the compound `O=C(c1n[nH]c2cccnc12)N1CCc2nc(COc3ccccc3)oc2C1` [Example B144], in series [1], the Emax turned out to be 39% and the negative-log EC50 (pEC50) is listed as above 5.

Regarding `O=C(c1c[nH]c2cccnc12)N1CCc2nc(COc3ccccc3)oc2C1` [Example B145], in series [1], the Emax was found to be 50% and the EC50 is above 10000 nM.

In the case of `O=C(c1coc2ccccc12)N1CCc2nc(COc3ccccc3)oc2C1` [Example B146], in series [1], the Emax was 61% and the EC50 was 407 nM.

With `O=C(c1n[nH]c2ncccc12)N1CCc2nc(COc3ccccc3)oc2C1` [Example B147], in series [1], the Emax was 74% and the half-maximal effective concentration (EC50) was 363 nM.

With `O=C(c1cnccn1)N1CCc2nc(COc3ccccc3)oc2C1` [Example B148], in series [1], the “Emax (%)” value was found to be 43% and the negative-log EC50 (pEC50) was below 5.

Regarding `O=C(c1ccc(F)cc1)N1CCc2nc(COc3cnccn3)oc2C1` [Example B152], in series [1], the Emax was 36% and the concentration giving a half-maximal response (EC50) is above 10000 nM.

As to `O=C(c1ncc[nH]1)N1CCc2nc(COc3ccccc3)oc2C1` [Example B153], in series [1], the maximal effect (Emax) was 32% and the EC50 is above 30200 nM.

In the case of `O=C(c1c[nH]cn1)N1CCc2nc(COc3ccccc3)oc2C1` [Example B154], in series [1], the Emax worked out at 26% and the EC50 is above 30200 nM.

Turning to `O=C(Cc1c[nH]cn1)N1CCc2nc(COc3ccccc3)oc2C1.O=C(O)C(F)(F)F` [Example B155], in series [1], the “Emax (%)” value was 30% and the negative logarithm of the EC50 (pEC50) is listed as below 4.52.

In the case of `Cc1cc(C(=O)N2CCc3nc(COc4ccccc4)oc3C2)no1` [Example B157], in series [1], the “Emax (%)” value is reported as 45% and the negative-log EC50 (pEC50) is listed as below 5.

Consider `Cn1cncc1C(=O)N1CCc2nc(COc3ccccc3)oc2C1` [Example B158], for which, in series [1], the Emax was 27% and the EC50 was above 30200 nM.

Regarding `O=C(c1nccs1)N1CCc2nc(COc3ccccc3)oc2C1` [Example B159], in series [1], the “Emax (%)” value stood at 23% and the pEC50 is reported as below 4.52.

For `O=C(c1ncccn1)N1CCc2nc(COc3ccccc3)oc2C1` [Example B160], in series [1], the “Emax (%)” value was 16% and the negative-log EC50 (pEC50) is listed as below 4.52.

On to `Cc1nc(C(=O)N2CCc3nc(COc4ccccc4)oc3C2)no1` [Example B161], for which, in series [1], the Emax turned out to be 20% and the half-maximal effective concentration (EC50) is above 10000 nM.

Take `O=C(c1cccnn1)N1CCc2nc(COc3ccccc3)oc2C1` [Example B162]: in series [1], the maximal response (Emax) was determined as 17% and the 50% effective concentration (EC50) is above 30200 nM.

These data come from patent publication US9090632B2, “Bicyclic oxazole and thiazole compounds and their use as allosteric modulators of mGluR5 receptors” (Vanderbilt University, priority 2010, dated 2015).
